Patent US20110229437A1, “Method of Treating Asthma with Antiviral Agents” (priority 2009, published 2011)

What was measured:
[1] = Case report: asthma symptoms of an adult with history of asthma after a 5 day course of Tamiflu; conditions: one patient
Text: They had been using Advair® two inhalations a day or Symbicort® four puffs a day. Advair® is a combination formulation containing fluticasone propionate (a corticosteroid) and salmeterol xinafoate (a long-acting β2-adrenergic receptor agonist). Symbicort® contains two active ingredients which are delivered via a single inhaler: budesonide, a corticosteroid, and formoterol, a long-acting β2-agonist.
Singulair® contains montelukast, a leukotriene receptor antagonist (LTRA) used for the maintenance treatment of asthma and to relieve symptoms of seasonal allergies.

[2] = Case report: flu like symptoms of the same adult under Tamiflu; format: in vivo, human; conditions: Tamiflu 75 mg by mouth twice a day

Structure (SMILES)	side effects in the patient ([1]; used for years)	asthma symptoms ([1]; during/after Tamiflu 75 mg by mouth twice a day for 5 days)	level of asthmatic relief compared with prednisone 60 mg per day, reported by the patient ([1]; five weeks after using Tamiflu)	time until fatigue resolved ([2]; one patient)	time until feeling better and myalgias relieved ([2]; one patient)	fever after start of treatment ([2]; dropped from 39 C.° within 1.5 days)
CC(C)(O)c1ccccc1CC[C@@H](SCC1(CC(=O)O)CC1)c1cccc(/C=C/c2ccc3ccc(Cl)cc3n2)c1 [Singulair, montelukast]	no side effects					
CCOC(=O)C1=C[C@@H](OC(CC)CC)[C@H](NC(C)=O)[C@@H](N)C1 [Tamiflu, Oseltamivir phosphate]		diminished	similar	≤ 1.5 days	≤ 12 h	38 C.°
